Assay results as given in patent publication US10407409B2, “6-(5-hydroxy-1H-pyrazol-1-yl)nicotinamide inhibitors of PHD” (Takeda Pharmaceutical Company Limited, priority 2013, dated 2019).

Assays:
[1] = target: PHD2 enzyme (residues 181-417) (Homo sapiens (Human), UniProt Q9GZT9); assay: Inhibition of PHD enzyme (LC/MS peptide hydroxylation assay); format: biochemical; settings: PHD2 (residues 181-417) 5 nM, 60 min pre-incubation; -log(IC50), IC50 molar
Procedure: Example A Inhibition of PHD Enzyme
The IC50 values for the PHD2 enzyme (residues 181-417) were determined by mixing increasing amounts of inhibitor with a fixed amount of enzyme (5 nM, final concentration) and Biotin labeled peptide (Biotin-Asp-Leu-Glu-Met-Leu-Ala-Pro-Tyr-Ile-Pro-Met-Asp-Asp-Asp-Phe-Gln-Leu, 1 uM final concentration) and 2-Oxyglutarate (2 uM final concentration) in 50 mM HEPES, 50 mM KCl, 0.5 mM TCEP, 2 uM FeCl2, 0.1 mg/ml BSA, at pH 7.3. The reaction was conducted by pre-incubating the enzyme in the presence of inhibitor for 60 min at room temperature. The activity of the free enzyme was measured by adding the peptide, the 2-Oxoglutarate (see above for final concentrations), and Ascorbic Acid (1 mM final concentration). The enzymatic activity was quenched after 60 min by adding an excess of a tight binding inhibitor to the assay mixture. The amount of product released was measured by using a LC/MS system (Agilent HPLC with Applied Biosystems API3000 Mass Spectrometer). Data were analyzed using the classical isotherm equation for the determination of IC50 values and are pIC50, i.e., −log(IC50), where IC50 is molar concentration and are reported as pIC50, i.e., −log(IC50), where IC50 is molar concentration.

[2] = test system: HIF1a protein in H9c2 rat cardiomyocytes; assay: Cell-based HIF-alpha stabilization assay (inhibition of PHD in cells); settings: Rattus norvegicus, H9c2, 24 h, 24 hrs compound incubation, HIF1a protein by ELISA, read-out: Inhibition of PHD in cells (pEC50) (converted)
Procedure: Example B Inhibition of PHD in Cells
PHD Inhibition is Determined Using (Secondary Assay)
Cell-Based HIF-Alpha Stabilization Assay:
H9c2 rat cardiomyocytes (ATCC) were seeded in 96-well tissue culture microplates and cultured for 24 hours prior to addition of compounds (11 point range of serial dilutions) or dimethylsulfoxide vehicle. After 24 hrs of compound incubation, whole cell extracts were prepared by lysing cells in cell extraction buffer containing protease and phosphatase inhibitors (Meso-Scale Discovery). HIF1a protein content was assessed by ELISA (Meso-Scale Discovery) and expressed as a % relative to the maximum response obtained from the positive control, desferrioxamine (Sigma-Aldrich). Compound EC50s were obtained by curve-fitting using XLfit4 MicroSoft Excel curve-fitting software. Compound EC50pos were obtained using XLfit4 to calculate the compound concentration that results in 50% of the desferrioxamine maximum response.

Sequence of PHD2 enzyme (residues 181-417) (Q9GZT9 181-417): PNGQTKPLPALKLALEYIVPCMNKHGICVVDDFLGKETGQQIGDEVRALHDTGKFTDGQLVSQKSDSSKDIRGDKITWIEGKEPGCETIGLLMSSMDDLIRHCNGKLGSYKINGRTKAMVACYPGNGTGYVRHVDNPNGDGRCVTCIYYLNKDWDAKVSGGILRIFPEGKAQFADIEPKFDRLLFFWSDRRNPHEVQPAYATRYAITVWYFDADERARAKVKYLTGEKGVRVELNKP

Row | Compound | PHD Inhibition (pIC50) [1] | EC50 [2]
1 | N#Cc1ccc(-c2cnn(-c3ccc(C(=O)NCCC4CCOCC4)cn3)c2O)cc1 [Example 174, 6-(4-(4-cyanophenyl)-5-hydroxy-1H-pyrazol-1-yl)-N-(2-(tetrahydro-2H-pyran-4-yl)ethyl)nicotinamide] | 7.31 | 0.759 µM
2 | COc1cc(-c2cnn(-c3ccc(C(=O)NC4CCOCC4)cn3)c2O)ccn1 [Example 15, 6-(5-hydroxy-4-(2-methoxypyridin-4-yl)-1H-pyrazol-1-yl)-N-(tetrahydro-2H-pyran-4-yl)nicotinamide] | 7.21 | 0.646 µM
3 | CNC(=O)c1ccc(-n2ncc(-c3ccnc(OC)c3)c2O)nc1 [Example 40, 6-(5-hydroxy-4-(2-methoxypyridin-4-yl)-1H-pyrazol-1-yl)-N-methylnicotinamide] | 7.9 | 0.977 µM
4 | Cc1cc(C#N)ccc1-c1cnn(-c2ccc(C(=O)NCCCN3CCOCC3)cn2)c1O [Example 104, 6-(4-(4-cyano-2-methylphenyl)-5-hydroxy-1H-pyrazol-1-yl)-N-(3-morpholinopropyl)nicotinamide] | 8.2 | 0.0955 µM
5 | CNC(=O)c1ccc(-n2ncc(-c3ccc(C#N)cc3)c2O)nc1 [Example 150, 6-(4-(4-cyanophenyl)-5-hydroxy-1H-pyrazol-1-yl)-N-methylnicotinamide] | 7.58 | 2.51 µM
6 | COCC1(CNC(=O)c2ccc(-n3ncc(-c4ccc(C#N)cc4C)c3O)nc2)CC1 [Example 135, 6-(4-(4-cyano-2-methylphenyl)-5-hydroxy-1H-pyrazol-1-yl)-N-((1-(methoxymethyl)cyclopropyl)methyl)nicotinamide] | 7.15 | 0.148 µM
7 | CCN1CCC(NC(=O)c2ccc(-n3ncc(-c4ccc(C#N)cc4C)c3O)nc2)CC1 [Example 98, 6-(4-(4-cyano-2-methylphenyl)-5-hydroxy-1H-pyrazol-1-yl)-N-(1-ethylpiperidin-4-yl)nicotinamide] | 7.9 | 0.12 µM
8 | N#Cc1ccc(-c2cnn(-c3ccc(C(=O)NCc4ccccc4)cn3)c2O)c(Cl)c1 [Example 196, N-benzyl-6-(4-(2-chloro-4-cyanophenyl)-5-hydroxy-1H-pyrazol-1-yl)nicotinamide] | 6.84 | 3.55 µM
9 | C[C@@H](NC(=O)c1ccc(-n2ncc(-c3ccc(C#N)cc3)c2O)nc1)C1CCOCC1 [Example 172, (R)-6-(4-(4-cyanophenyl)-5-hydroxy-1H-pyrazol-1-yl)-N-(1-(tetrahydro-2H-pyran-4-yl)ethyl)nicotinamide] | 7.33 | 1.26 µM
10 | Cc1cc(C#N)ccc1-c1cnn(-c2ccc(C(=O)N[C@H]3CC[C@@H](O)CC3)cn2)c1O [Example 131, 6-(4-(4-cyano-2-methylphenyl)-5-hydroxy-1H-pyrazol-1-yl)-N-((1 s,4s)-4-hydroxycyclohexyl)nicotinamide] | 7.21 | 0.257 µM
11 | Cc1cc(C#N)ccc1-c1cnn(-c2ccc(C(=O)NCCCN3CCCCC3C)cn2)c1O (stereo not drawn) [Example 97, 6-(4-(4-cyano-2-methylphenyl)-5-hydroxy-1H-pyrazol-1-yl)-N-(3-(2-methylpiperidin-1-yl)propyl)nicotinamide] | 8 | 0.0562 µM
12 | N#Cc1ccc(-c2cnn(-c3ccc(C(=O)NCC4CCOCC4)cn3)c2O)cc1F [Example 189, 6-(4-(4-cyano-3-fluorophenyl)-5-hydroxy-1H-pyrazol-1-yl)-N-((tetrahydro-2H-pyran-4-yl)methyl)nicotinamide] | 7.49 | 4.68 µM
13 | N#Cc1ccc(-c2cnn(-c3ccc(C(=O)NCC4CCOCC4)cn3)c2O)c(Cl)c1 [Example 197, 6-(4-(2-chloro-4-cyanophenyl)-5-hydroxy-1H-pyrazol-1-yl)-N-((tetrahydro-2H-pyran-4-yl)methyl)nicotinamide] | 6.83 | 1.58 µM
14 | N#Cc1ccc(-c2cnn(-c3ccc(C(=O)N[C@H]4CC[C@@H](O)CC4)cn3)c2O)cc1 [Example 164, 6-(4-(4-cyanophenyl)-5-hydroxy-1H-pyrazol-1-yl)-N-((1 s,4s)-4-hydroxycyclohexyl)nicotinamide] | 7.5 | 0.525 µM
15 | COCC1(CNC(=O)c2ccc(-n3ncc(-c4ccnc(OC)c4)c3O)nc2)CCCC1 [Example 47, 6-(5-hydroxy-4-(2-methoxypyridin-4-yl)-1H-pyrazol-1-yl)-N-((1-(methoxymethyl)cyclopentyl)methyl)nicotinamide] | 8.4 | 0.355 µM
16 | N#Cc1ccc(-c2cnn(-c3ccc(C(=O)NCCC4CCCOC4)cn3)c2O)cc1 (stereo not drawn) [Example 178, 6-(4-(4-cyanophenyl)-5-hydroxy-1H-pyrazol-1-yl)-N-(2-(tetrahydro-2H-pyran-3-yl)ethyl)nicotinamide] | 7.63 | 0.282 µM

Further lines, with some results ahead:

Row | PHD Inhibition (pIC50) [1] | Compound | EC50 [2]
17 | 7.51 | N#Cc1ccc(-c2cnn(-c3ccc(C(=O)NCCOC(F)(F)F)cn3)c2O)cc1 [Example 236, 6-(4-(4-cyanophenyl)-5-hydroxy-1H-pyrazol-1-yl)-N-(2-(trifluoromethoxy)ethyl)nicotinamide] | 0.589 µM
18 | 8.4 | Cc1cc(C#N)ccc1-c1cnn(-c2ccc(C(=O)NC3CC4(COC4)C3)cn2)c1O [Example 244, 6-(4-(4-cyano-2-methylphenyl)-5-hydroxy-1H-pyrazol-1-yl)-N-(2-oxaspiro[3.3]heptan-6-yl)nicotinamide] | 0.24 µM
19 | 7.93 | CCN(C)[C@H]1CCCN(C(=O)c2ccc(-n3ncc(-c4ccc(C#N)cc4C)c3O)nc2)C1 [Example 384, (S)-4-(1-(5-(3-(ethyl(methyl)amino)piperidine-1-carbonyl)pyridin-2-yl)-5-hydroxy-1H-pyrazol-4-yl)-3-methylbenzonitrile] | 1.51 µM
20 | 8.39 | CCN1CCN(C(=O)c2ccc(-n3ncc(-c4ccc(C#N)c(F)c4C)c3O)nc2)C[C@@H]1C [Example 328, (S)-4-(1-(5-(4-ethyl-3-methylpiperazine-1-carbonyl)pyridin-2-yl)-5-hydroxy-1H-pyrazol-4-yl)-2-fluoro-3-methylbenzonitrile] | 0.309 µM
21 | 8 | COc1cc(-c2cnn(-c3ccc(C(=O)NCC4CCOCC4)cn3)c2O)c(F)cn1 [Example 254, 6-(4-(5-fluoro-2-methoxypyridin-4-yl)-5-hydroxy-1H-pyrazol-1-yl)-N-((tetrahydro-2H-pyran-4-yl)methyl)nicotinamide] | 2.75 µM
22 | 8.2 | COCCCN(C)C(=O)c1ccc(-n2ncc(-c3ccc(C#N)cc3C)c2O)nc1 [Example 251, 6-(4-(4-cyano-2-methylphenyl)-5-hydroxy-1H-pyrazol-1-yl)-N-(3-methoxypropyl)-N-methylnicotinamide] | 0.324 µM
23 | 7.03 | CCNC(=O)c1cnc(-n2ncc(-c3ccc(C#N)cc3)c2O)cc1C [Example 274, 6-(4-(4-cyanophenyl)-5-hydroxy-1H-pyrazol-1-yl)-N-ethyl-4-methylnicotinamide] | 6.46 µM
24 | 7.23 | CCNC(=O)c1ccc(-n2ncc(-c3ccc(C#N)cc3)c2O)nc1 [Example 266, 6-(4-(4-cyanophenyl)-5-hydroxy-1H-pyrazol-1-yl)-N-ethylnicotinamide] | 1.91 µM
25 | 8.33 | Cc1cc(C#N)ccc1-c1cnn(-c2ccc(C(=O)N3CCN(C)CC3)cn2)c1O [Example 290, 4-(5-hydroxy-1-(5-(4-methylpiperazine-1-carbonyl)pyridin-2-yl)-1H-pyrazol-4-yl)-3-methylbenzonitrile] | 0.912 µM
26 | 8.67 | Cc1cc(C#N)ccc1-c1cnn(-c2ccc(C(=O)N(C)C)cn2)c1O [Example 301, 6-(4-(4-cyano-2-methylphenyl)-5-hydroxy-1H-pyrazol-1-yl)-N,N-dimethylnicotinamide] | 0.251 µM
27 | 7.72 | Cc1cc(C#N)ccc1-c1cnn(-c2ccc(C(=O)N3CCC[C@H]3CN3CCCC3)cn2)c1O [Example 348, (S)-4-(5-hydroxy-1-(5-(2-(pyrrolidin-1-ylmethyl)pyrrolidine-1-carbonyl)pyridin-2-yl)-1H-pyrazol-4-yl)-3-methylbenzonitrile] | 0.741 µM
